{"source": "patent US20240335395A1", "about": "“COMPOSITIONS AND METHODS FOR PREVENTING AND/OR TREATING DISEASE ASSOCIATED WITH IL-23 EXPRESSION” (ALLSPIM, priority 2021, published 2024)", "key": {"IL-23 gene (IL-23p19)": {"test_system": "IL-23 gene (IL-23p19)", "experiment": "IL-23 gene expression (RT-qPCR) in LPS-stimulated THP-1 cell culture", "assay_type": "cell-based, human", "settings": "THP-1, LPS 10 ng/ml, 2 h", "description": "The THP-1 cell line (TIB-202) was obtained from the American Type Culture Collection (ATCC, USA), grown in RPMI 1640 culture medium (Gibco) supplemented with 10% fetal bovine serum (Gibco, UK), 50 U/mL penicillin-streptomycin (Gibco), and 0.05 mM 2-Mercaptoethanol (Gibco). Cultured cells were plated into culture plates in appropriate volumes with a cell density of 500,000 cells/mL.\nAt two hours after stimulation with LPS (10 ng/ml) in the presence or not of 2,4-D at increasing concentrations, THP-1 cells from each experimental condition were directly lysed using TRIzol reagent (Invitrogen, USA) followed by RNA extraction according to the manufacturer's instructions. Finally, RNA was dissolved in 10 μL diethyl pyrocarbonate (DEPC)-treated water, quantified on a NanoDrop 2000 spectrophotometer (Thermo Scientific Inc., USA), and reverse-transcribed using the Super Script III First-Strand Synthesis System for RT-PCR kit (Thermo Scientific, USA) according to the manufacturer's instructions.\nPCR was performed in duplicate using SYBR Green qPCR master mix (Takara Biomedical Technology Co., Ltd, Dalian, China) on an ABI 7500 Real-Time PCR System (Thermo, USA). […] The ΔΔCT method was used to quantify relative mRNA levels as described in User Bulletin #2 for the ABI PRISM 7700 Sequence Detection System (Applied Biosystems, 2001). […]"}, "IL-1β, IL6 and TNFalpha": {"test_system": "IL-1β, IL6 and TNFalpha", "experiment": "Endometriosis mouse model, cytokines in cell-free peritoneal lavage (ELISA)", "assay_type": "in vivo", "settings": "50 mg/kg/day, 5 times a week, 6 weeks", "description": "Experimental design. Balb/C female mice (10 weeks old) were habituated for 3 days to take a jelly containing (group EDT+2,4D) or not (groups No EDT and EDT+Vehicle) the compound. Surgical implantation of endometrial tissue from syngenic female in peritoneum, was performed at day 0 for groups EDT+Vehicle and EDT+2,4D. […] The vehicle or treatment was then given 5 times a week (50 mg/kg/day) during 6 weeks. Mice were then sacrificed and the peritoneal inflammation was assessed. All the details of the protocol are depicted in FIG. 27. Cytokine measurement in cell-free peritoneal lavage. After mice were euthanized, 5 mL of PBS was injected into the peritoneal cavity and the diluted peritoneal fluid containing the cells was then retrieved. […] Cytokine concentration was assessed by ELISA kit in the peritoneal fluid (ThermoFisher, Mouse IL-1β, IL6 and TNFalpha Uncoated ELISA). […] The optical density was read with the Clariostar Plus Microplate Reader (BMG LABTECH), through the Clario software. Concentrations were calculated from a standard curve according to the manufacturer's protocol. Phenotypic study of immune cells from the peritoneal cavity assessed by flow cytometry. The pelleted peritoneal cells were resuspended in PBS-2% FBS and counted. […] All data were collected on LSR Fortessa flow cytometer (BD Bioscience, USA) and analyzed with FlowJo software. […]"}}}
{"compound": "COc1cc(O)c(OC)c(O)c1C(=O)/C=C/c1ccccc1", "note": "[2,4-D, 2′,4′-dihydroxy-3′,6′-dimethoxychalcone]", "values": [{"measurement": "IL-23 gene expression", "setting": "IL-23 gene (IL-23p19)", "value": "strongly inhibited"}, {"measurement": "concentration of IL1-β, IL-6 and TNF-α in peritoneal lavage", "setting": "IL-1β, IL6 and TNFalpha", "value": "tended to normalize"}]}
